Experimental data reported in PMC9749936, “Synthesis and structure–activity relationship studies of N-terminal analogues of the lipopeptide antibiotics brevicidine and laterocidine” (RSC Medicinal Chemistry, 2022).
Bridge positions count the residues as written; N and C are the ends. Square brackets hold non-standard residues; d marks the D form. Peptide text beside a SMILES is read from it. * marks the point of attachment. dOrn = NCCC[C@@H](N)C(=O)O; Octanoyl = CCCCCCCC(=O)*; Orn = NCCC[C@H](N)C(=O)O; Hexanoyl = CCCCCC(=O)*; Butyryl = CCCC(=O)*

Tests used:
E. coli ATCC 25922 MCR-1 = format: cell-based, Escherichia coli; details: colistin-resistant strain carrying mcr-1; CLSI broth microdilution in MHB, 18 h at 37 °C, visual inspection; three technical replicates
Procedure: (§1) The minimum inhibitory concentrations (MICs) of brevicidine and laterocidine analogues were determined against a panel of clinically relevant ESKAPE pathogens; Escherichia coli (E. coli), Klebsiella pneumoniae (K. pneumoniae), Acinetobacter baumannii (A. baumannii), Pseudomonas aeruginosa (P. aeuroginosa) and Staphylococcus aureus (S. aureus), which cause the majority of nosocomial infections in the United States.[16] […] In this resistance mechanism, the polymyxin target (lipid A) is modified, reducing binding affinity. For this reason, a strain of colistin-resistant E. coli carrying the mcr-1 gene was also included in the panel. […]
Colisitin sulfate was purchased from Activate Scientific. Kanamycin monosulfate was purchased from MP Biomedicals. E. coli ATCC 25922, S. aureus USA300 (ATCC BAA1717), K. pneumoniae ATCC 13883 and A. baumannii ATCC 17961 belong to the American Type Culture Collection (ATCC). P. aeruginosa PAO1 was kindly provided by L.H.C. Quarles Van Ufford, Utrecht University, Utrecht, The Netherlands. E. coli ATCC 25922 MCR-1 was transfected in house using the pGDP2-MCR1 plasmid kindly provided by Yong-Xin Li, The University of Hong Kong, Hong Kong, China. Sheep blood agar plates (Ref. PB5039A) were purchased from Thermo Scientific. Tryptic soy broth (Ref. 02-200-500) was purchased from Scharlab. Mueller-Hinton broth (Ref. X927.1) was purchased from Carl Roth. Polypropylene 96-wells plates (Ref. 3879) were purchased from Corning. […]
(10.0 mL). 2-Chlorotrityl (CT) chloride resin (2.00 g, 0.81 mmol g-1) and DIPEA (420 µL, 2.40 mmol) were added. […]
A gradient […]
method for C14 - C16 laterocidine was employed, starting at 100% solvent A for 2 min, ramping up to 70 % solvent B over 45 min, ramping up to 100% solvent B over 1 min, remaining there for 6 min before ramping down to 100% solvent A and remaining there for 5 min. High resolution mass spectrometry (HRMS) spectra of brevicidine peptides were recorded by Analytical Services and Environmental Projects (ASEP) at Queen’s University Belfast on a Waters LCT Premier ToF mass spectrometer using the electrospray ionisation (ESI) technique. HRMS spectra of laterocidine peptides were performed on a Thermo Scientific Dionex UltiMate 3000 HPLC system with a Phenomenex Kinetex C18 (2.6 µm, 2.1 x 150 mm) column at 35 °C and equipped with a diode array detector. The following solvent system, at a flow rate of 0.3 mL/min, was used: solvent A = 0.1% formic acid in water, solvent B = 0.1% formic acid in acetonitrile. A gradient method was employed, starting at 95 % solvent A and 5 % solvent B for 1 min, ramping up to 95 % solvent B over 9 min, ramping up to 98 % solvent B over 1 min, remaining there for 1 min before ramping back down to 95 % solvent A over 2 min and remaining there for 1 min.
The system was connected to a Bruker micrOTOF-Q II mass spectrometer (ESI ionization) calibrated internally with sodium […]
(§2) IV. Antimicrobial testing
(§3) All minimum inhibitory concentrations (MICs) were determined according to Clinical and Standards Laboratory Institute (CLSI) guidelines. Blood agar plates were inoculated with glycerol stocks of E. coli ATCC 25922, K. pneumoniae ATCC 13883, A. baumannii ATCC 17961, P. aeruginosa PAO1 and S. aureus USA300. The inoculated agar plates were then incubated for 16 h at 37 °C . Individually grown colonies were subsequently used to inoculate 5 mL aliquots of TSB that were then incubated at 37 °C with shaking at 220 rpm. E. coli 25922 MCR-1 glycerol stock was used to inoculate 5 mL of TSB supplemented with kanamycin that was then incubated for 16 h at 37 °C with shaking at 220 rpm. The next day the culture was diluted 100 fold in TSB supplemented with kanamycin and incubated at 37 °C with shaking at 220 rpm. In parallel, the lipopeptide antibiotics DMSO stocks to be assessed were serially diluted with MHB in polypropylene 96-well plates (50 µL in each well). Colistin sulfate stocks were dissolved in water before being diluted with MHB. […]

Sheep red blood cells = format: cell-based; details: red cells of sheep, 1 h, 64 μg mL^−1
Procedure: Having ascertained the antimicrobial activity of all synthetic peptides against a panel of ESKAPE pathogens, we next assessed their mammalian toxicity with hemolytic assays using sheep red blood cells. The % hemolysis for all peptides at 64 μg mL^−1 was determined, with the hemolysis induced by the surfactant 0.1% Triton X-100 taken as 100%. […] Hemolysis was <1% for all analogues with a C8 chain or shorter, including the strongest antibacterial peptide C8-Lat (22). Hemolytic activity increased up to C14 (>50% for C14-Lat) and then decreased at longer chain lengths, perhaps due to decreased solubility of peptides or aggregation. […]
Phosphate-Buffered Saline (PBS) containing 0.002% Tween20 (buffer) five times. Then, the red blood cells were normalized to obtain a positive control read-out between 2.5 and 3.0 at 415 nm to stay within the linear range with the maximum sensitivity. A serial dilution of the compounds (128 – 1 µg/mL, 75 µL) was prepared in a 96-well polypropylene plate. The outer border of the plate was filled with 75 µL buffer. Each plate contained a positive control (0.1% Triton-X final concentration, 75 µL) and a negative control (buffer, 75 µL) in triplicate. The normalized blood cells (75 µL) were added and the plates were incubated at 37 °C for 1 h while shaking at 500 rpm. A flat-bottom polystyrene plate with 100 µL buffer in each well was prepared. After incubation, the plates were centrifuged (800 g for 5 min at room temperature) and 25 µL of the supernatant was transferred to their respective wells in the flat-bottom plate. The values obtained from a read-out at 415 nm were corrected for background (negative control) and transformed to a percentage relative to the positive control. […]

A. baumannii ATCC 17961 = format: cell-based, Acinetobacter baumannii; details: ATCC 17961, 18 h
Procedure: as §1, §2
as §3, with “MHB. Aliquots of the inoculated TSB were incubated until an OD600 of around 0.5 was reached. The bacterial suspensions were then diluted with MHB (2 x 10^5 CFU mL-1) and added to the microplates containing the test compounds (50 µL to each well). The well-plates were sealed with an adhesive membrane and after 18 h of incubation at 37 °C with shaking at 600 rpm, the wells were visually inspected for bacterial” for “MHB.”
(§4) growth. MIC values reported are based on three technical replicates and defined as the lowest concentration of the compound that prevented visible growth of bacteria. […]
(§5) The values obtained from a read-out at 415 nm were corrected for background (negative control) and transformed to a percentage relative to the positive control.
(§6) VI. HPLC and HRMS analysis of peptides
(§7) Peptide Name Chemical Calcd Mass found Calcd Overall […]

E. coli ATCC 25922 = format: cell-based, Escherichia coli; details: ATCC 25922, 18 h
Procedure: as §1, §2
as §3, with “MHB. Aliquots of the inoculated TSB were incubated until an OD600 of around 0.5 was reached. The bacterial suspensions were then diluted with MHB (2 x 10^5 CFU mL-1) and added to the microplates containing the test compounds (50 µL to each well). The well-plates were sealed with an adhesive membrane and after 18 h of incubation at 37 °C with shaking at 600 rpm, the wells were visually inspected for bacterial” for “MHB.”
as §4, §5, §6, §7

K. pneumoniae ATCC 13883 = format: cell-based, Klebsiella pneumoniae; details: ATCC 13883, 18 h
Procedure: as §1, §2
as §3, with “MHB. Aliquots of the inoculated TSB were incubated until an OD600 of around 0.5 was reached. The bacterial suspensions were then diluted with MHB (2 x 10^5 CFU mL-1) and added to the microplates containing the test compounds (50 µL to each well). The well-plates were sealed with an adhesive membrane and after 18 h of incubation at 37 °C with shaking at 600 rpm, the wells were visually inspected for bacterial” for “MHB.”
as §4, §5, §6, §7

P. aeruginosa PAO1 = format: cell-based, Pseudomonas aeruginosa; details: PAO1, 18 h
Procedure: as §1, §2
as §3, with “MHB. Aliquots of the inoculated TSB were incubated until an OD600 of around 0.5 was reached. The bacterial suspensions were then diluted with MHB (2 x 10^5 CFU mL-1) and added to the microplates containing the test compounds (50 µL to each well). The well-plates were sealed with an adhesive membrane and after 18 h of incubation at 37 °C with shaking at 600 rpm, the wells were visually inspected for bacterial” for “MHB.”
as §4, §5, §6, §7

S. aureus USA300 = format: cell-based, Staphylococcus aureus; details: USA300, 18 h
Procedure: as §1, §2
as §3, with “MHB. Aliquots of the inoculated TSB were incubated until an OD600 of around 0.5 was reached. The bacterial suspensions were then diluted with MHB (2 x 10^5 CFU mL-1) and added to the microplates containing the test compounds (50 µL to each well). The well-plates were sealed with an adhesive membrane and after 18 h of incubation at 37 °C with shaking at 600 rpm, the wells were visually inspected for bacterial” for “MHB.”
as §4, §5, §6, §7

Row | SMILES | Antimicrobial activity (MIC) E. coli ATCC 25922 MCR-1 (E. coli ATCC 25922 MCR-1) [µg/mL] | % Hemolytic activity, sheep red blood cells (Sheep red blood cells) [%] | Antimicrobial activity (MIC) A. baumannii ATCC 17961 (A. baumannii ATCC 17961) [µg/mL] | Antimicrobial activity (MIC) E. coli ATCC 25922 (E. coli ATCC 25922) [µg/mL] | Antimicrobial activity (MIC) K. pneumoniae ATCC 13883 (K. pneumoniae ATCC 13883) [µg/mL] | Antimicrobial activity (MIC) P. aeruginosa PAO1 (P. aeruginosa PAO1) [µg/mL] | Antimicrobial activity (MIC) S. aureus USA300 (S. aureus USA300) [µg/mL]
1 | CC[C@H](C)[C@@H]1NC(=O)[C@@H](NC(=O)[C@H](Cc2c[nH]c3ccccc23)NC(=O)[C@@H](CCCN)NC(=O)CNC(=O)[C@H](CCCN)NC(=O)[C@@H](CCCN)NC(=O)[C@@H](Cc2c[nH]c3ccccc23)NC(=O)[C@@H](Cc2ccc(O)cc2)NC(=O)[C@H](N)CC(N)=O)[C@@H](C)OC(=O)[C@H](CO)NC(=O)CNC1=O [Compound 9] | >32 | 0.2 | >32 | >32 | >32 | 16 | >32
2 | CC[C@H](C)[C@@H]1NC(=O)[C@@H](NC(=O)[C@H](Cc2c[nH]c3ccccc23)NC(=O)[C@@H](CCCN)NC(=O)CNC(=O)[C@H](CCCN)NC(=O)[C@@H](CCCN)NC(=O)[C@@H](Cc2c[nH]c3ccccc23)NC(=O)[C@@H](Cc2ccc(O)cc2)NC(=O)[C@@H](CC(N)=O)NC(C)=O)[C@@H](C)OC(=O)[C@H](CO)NC(=O)CNC1=O [Compound 10] (Ac-[dN][dY][dW][dOrn][Orn]G[dOrn]WTIGS; ester 9-C) | >32 | 0.2 | >32 | >32 | >32 | 8 | >32
3 | CCCC(=O)N[C@H](CC(N)=O)C(=O)N[C@H](Cc1ccc(O)cc1)C(=O)N[C@H](Cc1c[nH]c2ccccc12)C(=O)N[C@H](CCCN)C(=O)N[C@@H](CCCN)C(=O)NCC(=O)N[C@H](CCCN)C(=O)N[C@@H](Cc1c[nH]c2ccccc12)C(=O)N[C@@H]1C(=O)N[C@@H]([C@@H](C)CC)C(=O)NCC(=O)N[C@@H](CO)C(=O)O[C@@H]1C [Compound 11] (Butyryl-[dN][dY][dW][dOrn][Orn]G[dOrn]WTIGS; ester 9-C) | 32 | 0.1 | 32 | 32 | 8 | 16 | >32
4 | CCCCCC(=O)N[C@H](CC(N)=O)C(=O)N[C@H](Cc1ccc(O)cc1)C(=O)N[C@H](Cc1c[nH]c2ccccc12)C(=O)N[C@H](CCCN)C(=O)N[C@@H](CCCN)C(=O)NCC(=O)N[C@H](CCCN)C(=O)N[C@@H](Cc1c[nH]c2ccccc12)C(=O)N[C@@H]1C(=O)N[C@@H]([C@@H](C)CC)C(=O)NCC(=O)N[C@@H](CO)C(=O)O[C@@H]1C [Compound 12] (Hexanoyl-[dN][dY][dW][dOrn][Orn]G[dOrn]WTIGS; ester 9-C) | 8 | 0.3 | 16 | 8 | 4 | >32 | >32
5 | CCCCCCCC(=O)N[C@H](CC(N)=O)C(=O)N[C@H](Cc1ccc(O)cc1)C(=O)N[C@H](Cc1c[nH]c2ccccc12)C(=O)N[C@H](CCCN)C(=O)N[C@@H](CCCN)C(=O)NCC(=O)N[C@H](CCCN)C(=O)N[C@@H](Cc1c[nH]c2ccccc12)C(=O)N[C@@H]1C(=O)N[C@@H]([C@@H](C)CC)C(=O)NCC(=O)N[C@@H](CO)C(=O)O[C@@H]1C [Compound 13] (Octanoyl-[dN][dY][dW][dOrn][Orn]G[dOrn]WTIGS; ester 9-C) | 16 | 0.4 | 16 | 16 | 16 | 8 | >32
